Test systems include CAKI-1 renal; CCRF-CEM leukemia; COLO 205 colon; K-562 leukemia; MDA-MB-435; NCI-H226 lung; RXF 393 renal; SR leukemia; UACC-62 melanoma; HL-60(TB) leukemia.
Test in all cases: DTP human tumour cell line panel, 48 h

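1) Cells in 96-well plates. 2) Compound, 48 h, 5 concentrations. 3) Linear interpolation between surrounding doses. 4) Unreached endpoint = highest concentration. GI50 is the concentration that inhibits growth by half. Definition used: TGI = concentration required for complete inhibition of growth.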 Where only a bound is given, the exact number is not on record here.

What is called TGI is the concentration at which net growth stops. A low value points to greater sensitivity of the cells. `C=C1C(=O)OC2CCN3CC=C(COC(=O)C(C)(O)C4(CO4)C1C)C23` (stereo not drawn): the TGI in the experiment with CAKI-1 renal, in the experiment on CCRF-CEM leukemia, with COLO 205 colon, with K-562 leukemia, in the experiment on MDA-MB-435 and in the experiment on NCI-H226 lung was greater than 100 µM each time. In addition, the TGI with RXF 393 renal, in the experiment with SR leukemia and in the experiment with UACC-62 melanoma was greater than 100 µM each time.
With `CC1=NNC(=O)C2CCC(=O)N12` (stereo not drawn), the TGI in the experiment on CAKI-1 renal, in the experiment with CCRF-CEM leukemia, in the experiment with COLO 205 colon, with HL-60(TB) leukemia, in the experiment with K-562 leukemia and with NCI-H226 lung was greater than 100 µM throughout. Also, the concentration for total growth inhibition (TGI) with RXF 393 renal and with SR leukemia was greater than 100 µM each time.
On to `CC1(C)COC(c2cccnc2/C=N/O)=N1`, for which the TGI in the experiment on CAKI-1 renal, with CCRF-CEM leukemia, in the experiment on COLO 205 colon, in the experiment with HL-60(TB) leukemia, in the experiment on K-562 leukemia and in the experiment on NCI-H226 lung was greater than 100 µM in each case. Besides, the TGI in the experiment on RXF 393 renal, in the experiment on SR leukemia and in the experiment on UACC-62 melanoma was greater than 100 µM each time.
For the compound `O=[N+]([O-])c1ccc(C2=Nn3cnnc3SC2)o1`, the TGI in the experiment on CCRF-CEM leukemia was found to be 51.1 µM; in the experiment on HL-60(TB) leukemia, 37.6 µM; in the experiment on K-562 leukemia it was 42.3 µM; with NCI-H226 lung, 67.2 µM; in the experiment with RXF 393 renal, 32.9 µM; in the experiment with SR leukemia it was 39.4 µM.
Take `N#CC(N)(C(=O)CCC(=O)Nc1cccc(Cl)c1)c1ccc(Cl)cc1` (stereo not drawn): the TGI in the experiment on CAKI-1 renal, in the experiment on CCRF-CEM leukemia, in the experiment with COLO 205 colon, with HL-60(TB) leukemia, in the experiment on K-562 leukemia and in the experiment with NCI-H226 lung was greater than 100 µM each time. Further, the TGI in the experiment on SR leukemia and in the experiment on UACC-62 melanoma was greater than 100 µM throughout.
Consider `COC(=O)C1=C(O)c2cc(OC)c(OC)cc2C(c2ccc(OC)c(OC)c2)C1` (stereo not drawn), for which the TGI in the experiment on CAKI-1 renal, with CCRF-CEM leukemia, in the experiment on COLO 205 colon, with HL-60(TB) leukemia, in the experiment on K-562 leukemia and in the experiment on NCI-H226 lung was greater than 100 µM each time. The TGI in the experiment with RXF 393 renal, in the experiment with SR leukemia and in the experiment with UACC-62 melanoma was greater than 100 µM in each case.
Consider `CCCCC(C(=O)C(=O)NC1C2CC3CC(C2)CC1C3)C(=O)C(C)C` (stereo not drawn), for which the TGI in the experiment with CAKI-1 renal, with CCRF-CEM leukemia, in the experiment on COLO 205 colon, with HL-60(TB) leukemia, in the experiment with K-562 leukemia and in the experiment on NCI-H226 lung was greater than 100 µM throughout. Further, the TGI in the experiment on RXF 393 renal, with SR leukemia and in the experiment with UACC-62 melanoma was greater than 100 µM each time.
For the compound `CC(C)c1ccccc1NC(=O)CCc1n[nH]c(=S)o1`, the TGI with CAKI-1 renal is greater than 100 µM; in the experiment with CCRF-CEM leukemia it was greater than 100 µM; in the experiment with COLO 205 colon it was 58.3 µM; in the experiment with HL-60(TB) leukemia, greater than 89.2 µM; in the experiment with K-562 leukemia, greater than 73.1 µM; in the experiment with NCI-H226 lung, greater than 100 µM. The TGI in the experiment on RXF 393 renal, in the experiment with SR leukemia and with UACC-62 melanoma was greater than 100 µM throughout.
For the compound `Cn1c2c(c3ccccc31)C1CCCCCCC1C1C(=O)OC(=O)C21` (stereo not drawn), the total growth inhibition concentration (TGI) was 59 µM in the experiment on CCRF-CEM leukemia; greater than 100 µM in the experiment with COLO 205 colon; 63.1 µM with HL-60(TB) leukemia; 75.3 µM with K-562 leukemia; greater than 100 µM in the experiment with NCI-H226 lung; 49 µM with RXF 393 renal. The TGI in the experiment with SR leukemia is 87.4 µM; in the experiment on UACC-62 melanoma, greater than 100 µM.
Regarding `CC(=O)c1cccc(NC(=O)C(=O)NNc2n[nH]c(=S)n2N)c1`, the TGI in the experiment on CAKI-1 renal was 34.4 µM; in the experiment on CCRF-CEM leukemia it was 20.3 µM; in the experiment on COLO 205 colon, 27.9 µM; with HL-60(TB) leukemia it was 32.1 µM; in the experiment on K-562 leukemia, 27.6 µM; in the experiment on NCI-H226 lung it was 20.1 µM. The figures for the TGI in the experiment with RXF 393 renal, with SR leukemia and with UACC-62 melanoma were 24.1 µM, 16.1 µM and 3.72 µM, respectively.
A word on the GI50: it is the concentration giving 50% growth inhibition. As for `C=C(CNCc1ccccc1)c1ccc(C(=O)Nc2ccccc2N)cc1`, the GI50 in the experiment on CAKI-1 renal was 5.35 µM; in the experiment on COLO 205 colon, 4.9 µM; in the experiment on HL-60(TB) leukemia it was 1.2 µM; in the experiment on K-562 leukemia it was 2.58 µM; in the experiment on MDA-MB-435, 5.24 µM; in the experiment on RXF 393 renal, 1.87 µM. Also, the GI50 with SR leukemia was 3.54 µM; in the experiment with UACC-62 melanoma it was 3.76 µM. For the same compound, the TGI is 32.5 µM in the experiment on CAKI-1 renal; 38.5 µM in the experiment with COLO 205 colon; greater than 100 µM in the experiment with HL-60(TB) leukemia; greater than 100 µM with K-562 leukemia; 27.7 µM in the experiment with MDA-MB-435; 24.1 µM in the experiment with RXF 393 renal. Further, the TGI with SR leukemia is greater than 100 µM; with UACC-62 melanoma, 25.3 µM.
`Cn1c2ccccc2c2c3c(c4c5cc(Br)ccc5n(C)c4c21)C(=O)N(O)C3=O`: the GI50 was 0.0323 µM in the experiment with CCRF-CEM leukemia; 0.197 µM with K-562 leukemia; 0.319 µM in the experiment on MDA-MB-435; 0.217 µM with RXF 393 renal; 0.0156 µM in the experiment on SR leukemia; 0.308 µM in the experiment on UACC-62 melanoma. Besides, the TGI with CCRF-CEM leukemia was 0.185 µM; in the experiment with K-562 leukemia, greater than 100 µM; with MDA-MB-435, greater than 100 µM; in the experiment on RXF 393 renal, 0.703 µM; in the experiment with SR leukemia, 0.584 µM; with UACC-62 melanoma it was greater than 100 µM.
With `Cc1cc([N+](=O)[O-])ccc1Nc1cccc(Cl)c1C`, the concentration for total growth inhibition (TGI) in the experiment with CAKI-1 renal was 30.5 µM; in the experiment with CCRF-CEM leukemia, 47.2 µM; in the experiment on COLO 205 colon, 31.3 µM; in the experiment on HL-60(TB) leukemia, 41.6 µM; with K-562 leukemia, 33.8 µM; in the experiment on NCI-H226 lung, 34.9 µM. Moreover, the TGI came out at 34.5 µM in the experiment with RXF 393 renal, 40.4 µM in the experiment with SR leukemia and 27.2 µM with UACC-62 melanoma.
As for `Cn1cc(CO)c2c1C(=O)C=C(N1CC1)C2=O`, the GI50 with CAKI-1 renal was less than 0.01 µM; in the experiment on CCRF-CEM leukemia it was 0.26 µM; in the experiment on COLO 205 colon, less than 0.0187 µM; in the experiment with HL-60(TB) leukemia it was 2.68 µM; with K-562 leukemia, 0.0224 µM; in the experiment with MDA-MB-435, less than 0.01 µM. Further, the GI50 in the experiment with RXF 393 renal is less than 0.0305 µM; in the experiment with SR leukemia, less than 0.01 µM; with UACC-62 melanoma, less than 0.01 µM. In addition, the total growth inhibition concentration (TGI) in the experiment on CAKI-1 renal is less than 0.0125 µM; in the experiment with CCRF-CEM leukemia, 11.2 µM; with HL-60(TB) leukemia, 18.1 µM; in the experiment with K-562 leukemia, 11.1 µM; in the experiment with MDA-MB-435, 0.04 µM; with RXF 393 renal, 0.914 µM. For the same compound, the TGI in the experiment on SR leukemia was determined as 0.0145 µM; in the experiment on UACC-62 melanoma, 0.0163 µM.

The values above are taken from PubChem BioAssay (NCI).
